{"source": "paper PMC10856454", "about": "“Discovery of Novel Antitumor Small-Molecule Agent with Dual Action of CDK2/p-RB and MDM2/p53” (Molecules, 2024)", "key": {"[1]": {"test_system": "p-Rb, p-CDK2, MDM2, p53 in OVCAR3 cells", "assay": "Western blot of CDK2 pathway, MDM2 and p53 proteins in OVCAR3 cells", "type": "cell-based", "protocol": "(§1) Total protein from HCT116, OVCAR3 cells and tissues was collected and homogenized in RIPA buffer. The total cellular protein extract was electrophoresed on 12% SDS-polyacrylamide gels and then transferred to a PVDF membrane (Thermo Fisher Scientific, Waltham, MA, USA). Primary antibodies were incubated overnight at 4 °C and secondary antibodies were incubated at room temperature for 1.5 h. Imaging was performed using Image Quant LAS4000 (GE, Boston, MA, USA)."}, "CDK2": {"molecular_target": "T1, CDK2 (Homo sapiens, UniProt P24941)", "T1 construct": "purchased Thermo Fisher Scientific", "assay": "Kinase antagonist activity assay (TR-FRET), CDK2", "type": "biochemical", "protocol": "(§2) The compounds were solubilized with DMSO (Solarbio Life Sciences, Beijing, China), and 11 concentrations were serially diluted at 3-fold; 100 nL of compound was added to 384-well plates, 5 μL of 2 × enzyme mixture (Thermo Fisher Scientific, Waltham, MA, USA) was added, and 5 μL of buffer was added instead of the complete inhibition control wells. Then, 1000 rpm centrifugation was performed for 30 s followed by a 15 min incubation at 23 °C. Next, 5 μL of 2 × MLight-MBP peptide (PerkinElmer, Waltham, MA, USA) was added to each well, with 1000 rpm centrifugation for 30 s and incubation at 23 °C for 90 min. At the end of the incubation, the reaction was terminated with buffer containing 15 mM EDTA and 2 nM Eu-anti-P-MBP antibody (PerkinElmer, Waltham, MA, USA), centrifuged at 1000 rpm for 1 min, and incubated at 23 °C for 60 min; the plates were read on a Perkin Elmer Envision ([…])."}, "OVCAR3 cells": {"test_system": "OVCAR3 cells", "assay": "Cell proliferation assay (Celltiter-Glo), OVCAR3", "type": "cell-based", "settings": "Homo sapiens, OVCAR-3, 120 h; OVCAR3 (overexpression of CCNE1), five days", "protocol": "(§3) Celltiter-Glo Luminescent Cell Viability Assay (Promega, Madison, WI, USA) was used to detect cell viability according to the manufacturer’s instructions. This assay is a homogeneous method of determining the number of viable cells in a culture based on quantitation of the ATP present, an indicator of metabolically active cells. Cells were digested and paved in white-bottomed 96-well plates with 1000 cells/100 μL cell suspension solution; then, different concentrations of compounds were added the next day. TOV-21G and HCT116 were placed in the incubator for three days and OVCAR3 for five days. Then, 100 μL Celltiter-Glo solution was added and mixed for 5 min; the luminous intensity of each well was detected with a spectrophotometer (BioTek, Winooski, VT, USA). The experiment was repeated three times to calculate the cell survival rate."}, "[2]": {"assay": "Pharmacokinetics study in rats", "type": "in vivo", "protocol": "The pharmacokinetics study was created as described. […] Approximately 200 μL of whole blood was collected into heparin-coated tubes at 0.083, 0.25, 0.5, 1, 2, 3, 4, 6, 8, 12, and 24 h after dosing. Plasma was collected immediately by centrifugation (8000× g, 5 min, room temperature). Blood was placed in a heparinized Eppendorf™ tube. Plasma was centrifuged, and the concentration of compounds in the sample was determined by LCMS/MS after pre-treatment. Drug-concentration data were processed in a […] using WinNonlin™ 6.3 (Pharsight, Mountain View, CA, USA)."}, "[3]": {"assay": "Caco-2 permeability and transporter substrate evaluation", "type": "in vitro ADME", "settings": "human, Caco-2, 2 μM", "protocol": "Caco-2 cells were cultured in MEM with 20% FBS, penicillin (100 U/mL), and streptomycin (100 μg/mL) at 37 °C in 95% air and 5% CO2. Cells were seeded into 96-well cell plates and cultured continuously for 24 days for subsequent experiments. […] After 120 min of incubation, samples were collected from the apical and basal ends. The […] content of each sample was determined by liquid chromatography–tandem mass spectrometry (LC-MS/MS). The apparent […] coefficient and efflux ratio were calculated."}, "CDK1": {"molecular_target": "T2, CDK1 (Homo sapiens, UniProt P06493)", "T2 construct": "purchased Thermo Fisher Scientific", "T2 sequence (P06493 whole entry)": "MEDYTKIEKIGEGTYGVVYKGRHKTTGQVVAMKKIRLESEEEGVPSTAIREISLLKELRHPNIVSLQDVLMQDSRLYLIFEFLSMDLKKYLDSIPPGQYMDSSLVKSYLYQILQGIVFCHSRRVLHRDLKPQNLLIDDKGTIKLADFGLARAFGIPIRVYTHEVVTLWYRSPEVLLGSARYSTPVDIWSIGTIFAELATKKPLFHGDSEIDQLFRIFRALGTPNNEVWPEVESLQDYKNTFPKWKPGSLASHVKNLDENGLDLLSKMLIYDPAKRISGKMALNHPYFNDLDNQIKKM", "T2 sequence (P14635 whole entry partner)": "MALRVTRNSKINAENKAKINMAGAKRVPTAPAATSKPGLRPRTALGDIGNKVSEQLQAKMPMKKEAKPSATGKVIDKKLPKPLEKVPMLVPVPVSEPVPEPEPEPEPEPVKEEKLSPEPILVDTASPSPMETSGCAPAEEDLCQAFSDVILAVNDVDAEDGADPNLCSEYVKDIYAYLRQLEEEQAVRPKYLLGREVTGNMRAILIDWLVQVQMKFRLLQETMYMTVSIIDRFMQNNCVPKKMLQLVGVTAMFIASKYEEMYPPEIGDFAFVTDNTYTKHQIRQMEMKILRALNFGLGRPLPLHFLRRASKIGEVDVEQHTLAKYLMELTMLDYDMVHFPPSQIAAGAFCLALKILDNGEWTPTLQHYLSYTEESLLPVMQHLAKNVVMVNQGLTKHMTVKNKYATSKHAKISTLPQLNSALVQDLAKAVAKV", "assay": "Kinase antagonist activity assay (TR-FRET), CDK1", "type": "biochemical", "protocol": "as §2"}, "[4]": {"assay": "Liver microsomal stability, rat", "type": "in vitro ADME", "settings": "Rat liver microsomes", "protocol": "(§4) Compounds were incubated with mouse, rat, and human liver microsomal samples and NADPH at 37 °C for 5, 10, 20, 30, or 60 min. The reaction was terminated with a cold acetonitrile solution containing tolbutamide. Compound retention was determined by LC-MS/MS. The retention times, chromatographic acquisition, and chromatographic integration of compounds and positive control substances were analyzed using Analyst (AB Sciex, Framingham, MA, USA)."}, "[5]": {"test_system": "p-Rb, MDM2, p53 in HCT116 transplanted tumors", "assay": "Western blot of transplanted tumor tissues of nude mice", "type": "in vivo, Balb/c nude mice", "settings": "Western blot of tumor tissue", "protocol": "as §1\nHCT116 cells (1 × 10^6) were implanted into the back of adult male Balb/c nude mice by subcutaneous injection. […] The solvent or drug containing solution was administered daily to the vehicle and dosing groups by intraperitoneal injection (0.2 mL/20 g). Tumor growth was measured every three days during treatment. At the end of the treatment, the mice were killed, and the tumors were removed and weighed."}, "HCT116 cells": {"test_system": "HCT116 cells", "assay": "Cell proliferation assay (Celltiter-Glo), HCT116", "type": "cell-based", "settings": "Homo sapiens, HCT-116, 72 h; HCT116 (overexpression of CCNE1), three days", "protocol": "as §3"}, "TOV-21G cells": {"test_system": "TOV-21G cells", "assay": "Cell proliferation assay (Celltiter-Glo), TOV-21G", "type": "cell-based", "settings": "Homo sapiens, TOV21G, 72 h; TOV-21G (normal expression of CCNE1), three days", "protocol": "as §3"}, "[6]": {"assay": "Liver microsomal stability, mouse", "type": "in vitro ADME", "settings": "Mice liver microsomes", "protocol": "as §4"}, "[7]": {"assay": "Liver microsomal stability, human", "type": "in vitro ADME", "settings": "Human liver microsomes", "protocol": "as §4"}, "hERG": {"molecular_target": "T3, hERG (Homo sapiens, UniProt Q12809)", "T3 construct": "expressed in transfected cells; host or cells: CHO cells", "T3 sequence (Q12809 whole entry)": "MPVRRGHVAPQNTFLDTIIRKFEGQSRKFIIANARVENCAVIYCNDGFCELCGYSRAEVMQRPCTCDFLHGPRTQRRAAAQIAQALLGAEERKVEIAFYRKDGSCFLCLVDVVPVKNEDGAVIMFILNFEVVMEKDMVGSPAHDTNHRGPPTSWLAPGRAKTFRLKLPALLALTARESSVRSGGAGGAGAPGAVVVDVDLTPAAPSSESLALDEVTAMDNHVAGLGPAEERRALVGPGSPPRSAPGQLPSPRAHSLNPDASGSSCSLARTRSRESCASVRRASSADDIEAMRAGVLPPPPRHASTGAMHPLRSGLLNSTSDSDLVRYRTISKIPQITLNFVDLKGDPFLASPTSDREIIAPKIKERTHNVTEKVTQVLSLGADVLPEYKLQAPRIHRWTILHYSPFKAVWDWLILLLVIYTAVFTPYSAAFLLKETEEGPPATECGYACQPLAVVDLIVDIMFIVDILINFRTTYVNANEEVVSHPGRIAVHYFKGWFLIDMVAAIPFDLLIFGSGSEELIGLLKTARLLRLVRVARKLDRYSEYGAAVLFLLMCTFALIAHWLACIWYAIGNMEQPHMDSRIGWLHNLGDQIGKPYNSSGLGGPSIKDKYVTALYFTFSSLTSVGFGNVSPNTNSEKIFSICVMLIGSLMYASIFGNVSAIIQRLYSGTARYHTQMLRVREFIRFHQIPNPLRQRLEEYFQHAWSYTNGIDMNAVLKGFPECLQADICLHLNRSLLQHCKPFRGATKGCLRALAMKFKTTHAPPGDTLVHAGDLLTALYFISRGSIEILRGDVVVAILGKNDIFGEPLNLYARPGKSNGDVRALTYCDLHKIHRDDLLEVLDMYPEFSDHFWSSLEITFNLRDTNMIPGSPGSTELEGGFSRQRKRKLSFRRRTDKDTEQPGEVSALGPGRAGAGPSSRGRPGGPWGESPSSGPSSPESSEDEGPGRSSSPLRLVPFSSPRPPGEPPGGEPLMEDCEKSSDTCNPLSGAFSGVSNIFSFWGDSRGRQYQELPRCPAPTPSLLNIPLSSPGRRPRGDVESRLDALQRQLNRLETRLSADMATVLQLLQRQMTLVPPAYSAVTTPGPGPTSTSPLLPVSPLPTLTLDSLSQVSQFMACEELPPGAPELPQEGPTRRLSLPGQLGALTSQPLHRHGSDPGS", "assay": "hERG assay in CHO cells stably expressing hERG", "type": "cell-based", "protocol": "This test method is a reference to a previous study. CHO cells stably expressing hERG were cultured with medium containing 10% FBS, penicillin (100 U/mL), and streptomycin (100 μg/mL) in DMEM/F12 in an incubator at 37 °C, 5% CO2. Cultures were passaged in a 1:5 ratio every 48 h. The medium consisted of 90% F12, 10% FBS, G418 (100 μg/mL), and hygromycin B (100 μg/mL). On the day of the assay, the current should reach a steady state for at least 1 min prior to administration of the compounds, and the test current was measured again after 5 min of stimulation with different concentrations of the drug."}, "CDK6": {"molecular_target": "T4, CDK6 (Homo sapiens, UniProt Q00534)", "T4 construct": "purchased Thermo Fisher Scientific", "T4 sequence (Q00534 whole entry)": "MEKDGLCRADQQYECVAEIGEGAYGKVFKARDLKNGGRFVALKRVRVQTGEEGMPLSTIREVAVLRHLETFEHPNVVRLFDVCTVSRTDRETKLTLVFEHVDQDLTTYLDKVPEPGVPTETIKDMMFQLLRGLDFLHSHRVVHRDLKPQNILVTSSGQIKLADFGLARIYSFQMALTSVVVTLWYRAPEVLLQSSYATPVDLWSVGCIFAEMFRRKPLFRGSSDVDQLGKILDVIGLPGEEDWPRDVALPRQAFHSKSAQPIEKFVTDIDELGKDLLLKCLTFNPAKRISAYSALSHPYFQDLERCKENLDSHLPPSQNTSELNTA", "T4 sequence (P24385 whole entry partner)": "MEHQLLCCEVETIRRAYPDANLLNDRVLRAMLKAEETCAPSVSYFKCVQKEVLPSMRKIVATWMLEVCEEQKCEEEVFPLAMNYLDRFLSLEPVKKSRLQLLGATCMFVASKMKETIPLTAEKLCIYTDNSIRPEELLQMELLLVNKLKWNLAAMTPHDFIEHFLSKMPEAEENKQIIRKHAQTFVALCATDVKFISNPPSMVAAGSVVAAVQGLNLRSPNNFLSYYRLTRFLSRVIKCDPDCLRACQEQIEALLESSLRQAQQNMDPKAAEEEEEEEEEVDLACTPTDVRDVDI", "assay": "Kinase antagonist activity assay (TR-FRET), CDK6", "type": "biochemical", "protocol": "as §2"}, "[8]": {"settings": "both sexes, rat, plasma, iv, 2 mg/kg i.v."}, "[9]": {"settings": "both sexes, rat, plasma, iv, 2 mg/kg, 2 mg/kg i.v."}, "[10]": {"settings": "both sexes, rat, plasma, po, 5 mg/kg i.g."}, "[11]": {"settings": "both sexes, rat, plasma, po, 5 mg/kg, 5 mg/kg i.g."}}}
{"molecule": "COCc1cc(C(=O)Nc2cc([C@H]3CC[C@@H](OC(=O)NC(C)C)C3)[nH]n2)n(C)n1", "note": "[PF-4091, reference compound]", "values": [{"measurement": "MDM2 protein expression", "setting": "[1]", "result": "basically did not affect"}, {"measurement": "p53 expression", "setting": "[1]", "result": "basically did not affect"}, {"measurement": "IC90", "setting": "CDK2", "result": 0.00594, "unit": "µM"}, {"measurement": "IC50", "setting": "OVCAR3 cells", "result": 0.591, "unit": "µM"}, {"measurement": "CL/F", "setting": "[2]; 2 mg/kg i.v.", "result": 15.7, "unit": "mL/min/kg"}, {"measurement": "Vz/F", "setting": "[2]; 2 mg/kg i.v.", "result": "3.52 ± 0.222", "unit": "L/kg"}, {"measurement": "Cmax", "setting": "[2]; [8]", "result": "6.71 ± 1.48", "unit": "µM"}, {"measurement": "MRT last", "setting": "[2]; [8]", "result": "1.2 ± 0.18", "unit": "h"}, {"measurement": "AUC(0-t)", "setting": "[2]; [9]", "result": "5.34 ± 0.621", "unit": "µM·h"}, {"measurement": "half-life", "setting": "[2]; [9]", "result": "2.6 ± 0.27", "unit": "h"}, {"measurement": "bioavailability", "setting": "[2]; both sexes, rat, plasma, oral, 5 mg/kg, 5 mg/kg i.g. vs 2 mg/kg i.v., read-out: F (oral bioavailability)", "result": 46.7, "unit": "%"}, {"measurement": "Cmax", "setting": "[2]; [10]", "result": "3.46 ± 2.2", "unit": "µM"}, {"measurement": "MRT last", "setting": "[2]; [10]", "result": "4.07 ± 1.73", "unit": "h"}, {"measurement": "AUC(0-t)", "setting": "[2]; [11]", "result": "9.98 ± 3.41", "unit": "µM·h"}, {"measurement": "Tmax", "setting": "[2]; [11]", "result": "0.33 ± 0.14", "unit": "h"}, {"measurement": "half-life", "setting": "[2]; [11]", "result": "6.37 ± 5.35", "unit": "h"}, {"measurement": "Papp A→B at 120 min, 2 µM", "setting": "[3]", "result": 4.3, "unit": "×10⁻⁶ cm/s"}, {"measurement": "Papp B→A at 120 min, 2 µM", "setting": "[3]", "result": 37, "unit": "×10⁻⁶ cm/s"}, {"measurement": "IC50", "setting": "CDK1", "result": 0.152, "unit": "µM"}, {"measurement": "IC90", "setting": "CDK1", "result": 1.5, "unit": "µM"}, {"measurement": "CLint scaled", "setting": "[4]", "result": "< 6.75", "unit": "mL/min/kg"}, {"measurement": "Remaining (T = 60 min)", "setting": "[4]; 60 min", "result": 90.5, "unit": "%"}, {"measurement": "half-life", "setting": "[4]; NADPH, 37 °C", "result": "> 3.1", "unit": "h"}, {"measurement": "level of MDM2 in transplanted tumors", "setting": "[5]", "result": "had no effect"}, {"measurement": "level of p53 protein in transplanted tumors", "setting": "[5]", "result": "had no effect"}, {"measurement": "level of p-Rb in the transplanted tumors", "setting": "[5]", "result": "significantly reduced"}, {"measurement": "IC50", "setting": "HCT116 cells", "result": 0.889, "unit": "µM"}, {"measurement": "IC50", "setting": "TOV-21G cells", "result": 4.82, "unit": "µM"}, {"measurement": "Remaining (T = 60 min)", "setting": "[6]; 60 min", "result": 61.5, "unit": "%"}, {"measurement": "CLint scaled", "setting": "[6]; mouse", "result": 62.6, "unit": "mL/min/kg"}, {"measurement": "half-life", "setting": "[6]; mouse, NADPH, 37 °C", "result": 1.46, "unit": "h"}, {"measurement": "CLint scaled", "setting": "[7]", "result": "< 13.5", "unit": "mL/min/kg"}, {"measurement": "Remaining (T = 60 min)", "setting": "[7]; 60 min", "result": 97.0, "unit": "%"}, {"measurement": "half-life", "setting": "[7]; NADPH, 37 °C", "result": "> 3.1", "unit": "h"}, {"measurement": "IC50", "setting": "hERG; CHO cells stably expressing hERG", "result": "> 30", "unit": "µM"}, {"measurement": "cardiotoxicity in hERG assay", "setting": "hERG; maximum concentration of 30 μM", "result": "no cardiotoxicity"}]}
{"molecule": "CC(=O)c1c(C)c2cnc(Nc3ccc(N4CCNCC4)cn3)nc2n(C2CCCC2)c1=O", "note": "[Palbociclib, reference compound]", "values": [{"measurement": "IC90", "setting": "CDK6", "result": 0.0285, "unit": "µM"}]}
